Source: patent US20030109529A1, “Use of s-triazines for treating Apicomplexan parasitic infections” (priority 1999, published 2003)

Columns and labels:
Plasmodium berghi = assay: In vivo evaluation against Plasmodium berghi in Lewis rats, intravenous treatment; parameters: species or system rat; details: 20 mg/kg I.V., 24 and 48 hrs
Protocol: In vivo testing was performed using juvenile female Lewis rats. Rats were inoculated intraperitoneally with 30,000,000 Plasmodium berghi infected RBCs. Rats were bled daily from the tail vein and, when parasitemia reached 1-3%, therapy was begun.
Blood smears were obtained at 24 and 48 hrs. The percent RBCs infected was then calculated after counting and inspecting 500 RBCs for each rat.

[1] = system: mefloquine resistant P. falciparum (Mfl res); assay: In vitro RBC culture, mefloquine resistant P. falciparum; type: cell-based, Plasmodium falciparum
Protocol: Briefly, a red blood cell suspension at a malarial (wild type Plasmodium falciparum) infection rate of approximately 1% was added to each well of a 96 well micro titer plate. The test compound was added to the cultures at final concentrations of 2.0, 0.2 or 0.02 μM. and incubated in an environment of 5% CO2, 5% O2 and 90% N2 at 37° C. Every 24 hrs the dish was removed, 100 μl of spent medium removed and 100 μl of fresh, compound containing-medium was added back to each well. This procedure was repeated daily.
At 48 hrs and again at 96 hrs, blood smears were made from each well and 500 Red Blood Cells (RBCs) were counted and inspected for malarial infection. The percent infection rate was then determined for each experimental condition tested.
The procedure set forth in Example 1 is utilized for testing the effectiveness of mefloquine and atrazine against mefloquine-resistant P. falciparum.
Malaria parasite (P. falciparum) was grown in culture as described previously. At 48 hours and 96 hours of treatment, red blood cells were taken from culture and the percent red blood cells infected with the parasite was determined by microscopic examination.

calf DHFR = target: T1, calf DHFR (Bos taurus, UniProt P00376); assay: DHFR enzyme assay, calf liver homogenate; type: biochemical
T1 construct: tested using homogenates of calf liver, rat liver and cultures of P. falciparum; from tissue; host or cells: calf liver homogenate
T1 sequence (P00376 1-187): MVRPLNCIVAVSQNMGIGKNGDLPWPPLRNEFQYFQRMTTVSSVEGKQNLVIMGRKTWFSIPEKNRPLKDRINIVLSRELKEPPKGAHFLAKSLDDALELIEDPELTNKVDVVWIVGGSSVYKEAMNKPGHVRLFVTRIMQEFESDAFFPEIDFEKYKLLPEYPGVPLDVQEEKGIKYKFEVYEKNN
Protocol: The ability of atrazine to inhibit dihydrofolate reductase (DHFR) is also tested using homogenates of calf liver, rat liver and cultures of P. falciparum. Atrazine's ability to inhibit mammalian DHFR (i.e., calf DHFR and rat DHFR) as well as malarial DHFR is determined using standard enzyme assays and the Michaelis-Menton analysis. The Michaelis-Menton hypothesis states that a complex is formed between an enzyme and its substrate and that the complex then dissociates to yield free enzyme and the reaction products, with the rate of dissociation determining the overall rate of substrate-product conversion. For a more complete review of the Michaelis constant, see Benet et al., 1996, Pharmacokinetics, Chapter 1:3-27, In Goodman & Gilman's The Pharmacological Basis of Therapeutics, Ninth Edition, McGraw-Hill; and Ross, 1996, Pharmacodynamics, Chapter 2:29-41, Id.

## CCNc1nc(Cl)nc(NC(C)C)n1 [atrazine, 2-chloro-4-ethylamino-6-isopropylamino-s-triazine]
Plasmodium berghi
  in vivo percentage of RBCs infected with P. berghi compared to non-treated controls (FIG. 6): disease dramatically reduced
[1]; Example 3, 48 hrs or 96 hrs after treatment
  percentage of RBCs infected with mefloquine-resistant P. falciparum: relatively low percentage of the RBCs being infected
[1]; mefloquine resistant, 48 and 96 hours
  effectiveness against resistant parasite (FIGS. 8, 9): effective against several classic forms of resistance
[1]; mefloquine-resistant, 96 hrs of treatment, 0.02 μM, control 24
  Red Blood Cell Infection Rate: 3%
Calf DHFR
  inhibition of DHFR: does not inhibit DHFR
